Data on three compounds can be found in patent publication US20230265151A1, “GIP/GLP1 CO-AGONIST COMPOUNDS” (priority 2020, published 2023).

Like-named read-outs stand apart in the source and are kept apart here.

Assay [1] concerns the target T1, human GLP-1 receptor (hGLP-1R) (Homo sapiens, UniProt P43220).
T1 construct: expressed in transfected cells; crude membranes
In words: [125I]-GLP-1 binding, SPA with membranes of HEK293 cells expressing hGLP-1R.

The target in assay [2] is T2, hGIPR (Homo sapiens, UniProt P48546).
T2 construct: expressed in transfected cells
T2 sequence (P48546 22-466): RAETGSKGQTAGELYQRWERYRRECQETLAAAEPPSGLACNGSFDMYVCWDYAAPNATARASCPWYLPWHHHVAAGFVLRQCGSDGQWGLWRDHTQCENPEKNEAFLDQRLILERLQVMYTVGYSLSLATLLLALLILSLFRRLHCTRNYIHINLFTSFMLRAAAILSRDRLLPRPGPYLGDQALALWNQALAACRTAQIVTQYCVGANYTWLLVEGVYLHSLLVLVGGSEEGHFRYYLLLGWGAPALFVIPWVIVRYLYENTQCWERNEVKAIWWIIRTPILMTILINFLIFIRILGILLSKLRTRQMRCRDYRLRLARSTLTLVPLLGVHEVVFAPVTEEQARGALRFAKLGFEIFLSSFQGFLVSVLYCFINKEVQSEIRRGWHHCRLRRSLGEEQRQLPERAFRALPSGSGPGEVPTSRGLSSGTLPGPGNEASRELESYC
In words: Functional cAMP formation (HTRF) in HEK-293 clonal cells expressing hGIPR, 0.1% bovine casein, without or with 1.0% human serum albumin. The note with it: for EC50: cAMP. In kind it is cell-based. The procedure, abridged: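 Readings of the HTRF 665/620 nm ratio, which falls as cAMP rises, were converted to nM cAMP using a standard curve after 30 min peptide exposure at 37° C.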
(Changes in cAMP serve as a functional read-out for many G protein-coupled receptors.)

[3] abbreviates: human GLP-1R, geometric mean (SEM, n), read-out: Binding Affinity Ki, nM (SEM, n) hGLP-1R.
Setting [4] is: HEK293, 0.1% bovine casein and 1.0% human serum albumin, 37° C., percent of maximal response to GIP(1-42)NH2, read-out: hGIPR Emax, % ± SEM.
Setting [5] is: HEK293, percent of maximal response to GIP(1-42)NH2, 37° C., 0.1% bovine casein, arithmetic mean, read-out: hGIPR Emax, % ± SEM.

T1 sequence (P43220 24-463): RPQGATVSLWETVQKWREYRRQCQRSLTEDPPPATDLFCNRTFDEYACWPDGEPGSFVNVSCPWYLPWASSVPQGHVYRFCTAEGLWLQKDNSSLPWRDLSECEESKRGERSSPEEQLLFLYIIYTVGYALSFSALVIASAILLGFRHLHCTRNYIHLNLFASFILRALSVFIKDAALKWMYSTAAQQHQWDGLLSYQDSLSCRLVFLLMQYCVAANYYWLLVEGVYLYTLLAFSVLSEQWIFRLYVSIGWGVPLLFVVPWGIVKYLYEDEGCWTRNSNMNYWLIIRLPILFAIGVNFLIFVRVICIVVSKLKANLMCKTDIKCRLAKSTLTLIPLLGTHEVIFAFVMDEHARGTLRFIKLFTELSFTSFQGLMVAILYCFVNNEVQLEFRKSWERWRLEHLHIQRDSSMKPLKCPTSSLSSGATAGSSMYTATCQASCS

In general, Ki refers to a measure of affinity in units of concentration, obtained from inhibition or displacement. For orientation: Emax means the size of the effect at its maximum, as opposed to the concentration needed. As usually defined, the EC50 is the concentration needed to bring the measured effect to its halfway point. `CC[C@H](C)[C@H](NC(=O)[C@H](CC(C)C)NC(=O)[C@](C)(Cc1ccc(O)cc1)NC(=O)[C@H](CCCCNC(=O)CC[C@H](NC(=O)COCCOCCNC(=O)COCCOCCNC(=O)CC[C@H](NC(=O)CCCCCCCCCOc1ccc(C(=O)O)cc1)C(=O)O)C(=O)O)NC(=O)[C@@H](NC(=O)[C@H](Cc1ccccc1)NC(=O)[C@H](CCCN)NC(=O)C(C)(C)NC(=O)[C@H](CCC(N)=O)NC(=O)[C@H](C)NC(=O)[C@H](CCC(N)=O)NC(=O)[C@H](CCCN)NC(=O)[C@H](CC(=O)O)NC(=O)[C@H](CC(C)C)NC(=O)[C@](C)(CC(C)C)NC(=O)[C@@H](NC(=O)C(C)(C)NC(=O)[C@H](Cc1ccncc1)NC(=O)[C@H](CC(=O)O)NC(=O)[C@H](CO)NC(=O)[C@@H](NC(=O)[C@](C)(Cc1ccccc1F)NC(=O)[C@@H](NC(=O)CNC(=O)[C@H](CCC(=O)O)NC(=O)C(C)(C)NC(=O)[C@@H](N)Cc1ccc(O)cc1)[C@@H](C)O)[C@@H](C)O)[C@@H](C)CC)[C@@H](C)CC)C(=O)N[C@@H](CCCCNC(=O)CC[C@H](NC(=O)COCCOCCNC(=O)COCCOCCNC(=O)CC[C@H](NC(=O)CCCCCCCCCOc1ccc(C(=O)O)cc1)C(=O)O)C(=O)O)C(=O)NCC(=O)NCC(=O)N1CCC[C@H]1C(=O)N[C@@H](CO)C(=O)N[C@@H](CO)C(=O)NCC(=O)N[C@@H](C)C(=O)N1CCC[C@H]1C(=O)N1CCC[C@H]1C(=O)N1CCC[C@H]1C(=O)N[C@@H](CO)C(N)=O` [Example 483]: affinity in assay [1] was put at a Ki of 0.263 nM. The Emax in assay [2] (HEK293, read-out: hGIPR Emax, % ± SEM, cAMP, 37° C., 0.1% bovine casein and 1.0% human serum albumin, percent of maximal response to GIP(1-42)NH2) came out at 92.6%; in assay [2] (HEK293, read-out: hGIPR Emax, % ± SEM, cAMP, 37° C., 0.1% bovine casein, percent of maximal response to GIP(1-42)NH2, arithmetic mean) it was 97.4%. The EC50 in assay [2] (hGIPR EC50, nM (SEM, n), 37° C., 0.1% bovine casein (no human serum albumin), geometric mean) amounted to 0.0138 nM; in assay [2] (hGIPR EC50, nM (SEM, n), 37° C., 0.1% bovine casein and 1.0% human serum albumin, geometric mean (SEM, n)) it was 0.297 nM.
Take `CC[C@H](C)[C@H](NC(=O)[C@H](CC(C)C)NC(=O)[C@](C)(Cc1ccc(O)cc1)NC(=O)[C@@H](CCC(=O)O)NC(=O)[C@@H](NC(=O)[C@H](Cc1ccccc1)NC(=O)[C@H](CCC(=O)O)NC(=O)C(C)(C)NC(=O)[C@H](CCC(N)=O)NC(=O)[C@H](C)NC(=O)[C@H](CCCCNC(=O)COCCOCCNC(=O)COCCOCCNC(=O)CC[C@H](NC(=O)CCCCCCCCCCCCC(=O)O)C(=O)O)NC(=O)[C@H](CCCN)NC(=O)[C@H](CC(=O)O)NC(=O)[C@H](CC(C)C)NC(=O)[C@](C)(CC(C)C)NC(=O)[C@@H](NC(=O)C(C)(C)NC(=O)[C@@H](NC(=O)[C@H](CC(=O)O)NC(=O)[C@H](CO)NC(=O)[C@@H](NC(=O)[C@](C)(Cc1ccccc1F)NC(=O)[C@@H](NC(=O)CNC(=O)[C@H](CCC(=O)O)NC(=O)C(C)(C)NC(=O)[C@@H](N)Cc1ccc(O)cc1)[C@@H](C)O)[C@@H](C)O)C(C)C)[C@@H](C)CC)[C@@H](C)CC)C(=O)N[C@@H](CCC(=O)O)C(=O)NCC(=O)NCC(=O)N[C@@H](CCCCNC(=O)COCCOCCNC(=O)COCCOCCNC(=O)CC[C@H](NC(=O)CCCCCCCCCCCCC(=O)O)C(=O)O)C(=O)N[C@@H](CO)C(=O)N[C@@H](CO)C(=O)NCC(=O)N[C@@H](C)C(=O)N1CCC[C@H]1C(=O)N1CCC[C@H]1C(=O)N1CCC[C@H]1C(=O)N[C@@H](CO)C(N)=O` [Example 91]: the Ki in assay [1] (setting [3]) amounted to 1.26 nM. The Emax in assay [2] (setting [4]) worked out at 91.9%; in assay [2] (setting [5]), 92.8 ± 4.69%.
As to `CC[C@H](C)[C@H](NC(=O)[C@H](CC(C)C)NC(=O)[C@](C)(Cc1ccc(O)cc1)NC(=O)[C@@H](CCC(=O)O)NC(=O)[C@@H](NC(=O)[C@H](Cc1ccccc1)NC(=O)[C@H](CCC(=O)O)NC(=O)C(C)(C)NC(=O)[C@H](CCC(N)=O)NC(=O)[C@H](C)NC(=O)[C@H](CCCCNC(=O)COCCOCCNC(=O)COCCOCCNC(=O)CC[C@H](NC(=O)CCCCCCCCCCCCC(=O)O)C(=O)O)NC(=O)[C@H](CCCN)NC(=O)[C@H](CC(=O)O)NC(=O)[C@H](CC(C)C)NC(=O)[C@](C)(CC(C)C)NC(=O)[C@@H](NC(=O)[C@](C)(CO)NC(=O)[C@@H](NC(=O)[C@H](CC(=O)O)NC(=O)[C@H](CO)NC(=O)[C@@H](NC(=O)[C@](C)(Cc1ccccc1F)NC(=O)[C@@H](NC(=O)CNC(=O)[C@H](CCC(=O)O)NC(=O)C(C)(C)NC(=O)[C@@H](N)Cc1ccc(O)cc1)[C@@H](C)O)[C@@H](C)O)C(C)C)[C@@H](C)CC)[C@@H](C)CC)C(=O)N[C@@H](CCC(=O)O)C(=O)NCC(=O)NCC(=O)N[C@@H](CCCCNC(=O)COCCOCCNC(=O)COCCOCCNC(=O)CC[C@H](NC(=O)CCCCCCCCCCCCC(=O)O)C(=O)O)C(=O)N[C@@H](CO)C(=O)N[C@@H](CO)C(=O)NCC(=O)N[C@@H](C)C(=O)N1CCC[C@H]1C(=O)N1CCC[C@H]1C(=O)N1CCC[C@H]1C(=O)N[C@@H](CO)C(N)=O` [Example 212], in assay [1] (setting [3]), the Ki amounted to 1.17 nM. Also, the Emax in assay [2] (setting [4]) was found to be 81%; in assay [2] (setting [5]) it was 100%. Further, in assay [2] (incubated at 37° C., 0.1% bovine casein (no human serum albumin), geometric mean, read-out: hGIPR EC50, nM (SEM, n)), the EC50 came to 0.0385 nM.
